This passage reports IC50 results from patent publication US11485736B2 (KSQ Therapeutics, Inc., priority 2018, dated 2022).

Each structure is given as a SMILES string.

For one assay, the target named is USP1/UAF1 (Homo sapiens (Human), UniProt O94782). As to the kind of experiment: Deubiquitination assay for USP1/UAF1 activity (ubiquitin-rhodamine 110). Type of assay: biochemical. The following applies: Table 2; 0.05 nM USP1/UAF1, 150 nM ubiquitin-rhodamine. Here is the method: Certain Compounds of the Disclosure were assessed for USP1/UAF1 activity in a Ubiquitin Rhodamine assay modified from those described previously.
Sequence of USP1/UAF1 (O94782 whole entry): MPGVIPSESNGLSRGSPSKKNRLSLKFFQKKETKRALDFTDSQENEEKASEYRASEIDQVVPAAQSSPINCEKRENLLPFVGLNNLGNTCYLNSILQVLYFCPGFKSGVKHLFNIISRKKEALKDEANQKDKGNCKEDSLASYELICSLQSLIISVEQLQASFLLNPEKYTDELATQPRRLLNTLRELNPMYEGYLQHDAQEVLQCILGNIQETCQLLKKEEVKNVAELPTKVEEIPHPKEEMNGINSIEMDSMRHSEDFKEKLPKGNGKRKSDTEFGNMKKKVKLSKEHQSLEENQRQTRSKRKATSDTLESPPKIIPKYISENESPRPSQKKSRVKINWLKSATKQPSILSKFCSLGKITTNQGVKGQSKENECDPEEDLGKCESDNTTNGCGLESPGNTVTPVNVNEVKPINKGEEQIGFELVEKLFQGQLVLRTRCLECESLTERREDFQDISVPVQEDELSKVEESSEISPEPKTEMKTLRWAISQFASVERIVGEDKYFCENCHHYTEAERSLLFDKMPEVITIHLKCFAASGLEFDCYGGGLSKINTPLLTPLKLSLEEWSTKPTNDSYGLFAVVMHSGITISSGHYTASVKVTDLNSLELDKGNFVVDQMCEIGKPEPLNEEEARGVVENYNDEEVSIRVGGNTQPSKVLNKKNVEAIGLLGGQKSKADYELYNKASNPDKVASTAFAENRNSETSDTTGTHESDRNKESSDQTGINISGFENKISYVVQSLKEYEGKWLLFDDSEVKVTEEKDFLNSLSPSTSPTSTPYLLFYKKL
Sequence of USP1/UAF1 (Q8TAF3 whole entry partner): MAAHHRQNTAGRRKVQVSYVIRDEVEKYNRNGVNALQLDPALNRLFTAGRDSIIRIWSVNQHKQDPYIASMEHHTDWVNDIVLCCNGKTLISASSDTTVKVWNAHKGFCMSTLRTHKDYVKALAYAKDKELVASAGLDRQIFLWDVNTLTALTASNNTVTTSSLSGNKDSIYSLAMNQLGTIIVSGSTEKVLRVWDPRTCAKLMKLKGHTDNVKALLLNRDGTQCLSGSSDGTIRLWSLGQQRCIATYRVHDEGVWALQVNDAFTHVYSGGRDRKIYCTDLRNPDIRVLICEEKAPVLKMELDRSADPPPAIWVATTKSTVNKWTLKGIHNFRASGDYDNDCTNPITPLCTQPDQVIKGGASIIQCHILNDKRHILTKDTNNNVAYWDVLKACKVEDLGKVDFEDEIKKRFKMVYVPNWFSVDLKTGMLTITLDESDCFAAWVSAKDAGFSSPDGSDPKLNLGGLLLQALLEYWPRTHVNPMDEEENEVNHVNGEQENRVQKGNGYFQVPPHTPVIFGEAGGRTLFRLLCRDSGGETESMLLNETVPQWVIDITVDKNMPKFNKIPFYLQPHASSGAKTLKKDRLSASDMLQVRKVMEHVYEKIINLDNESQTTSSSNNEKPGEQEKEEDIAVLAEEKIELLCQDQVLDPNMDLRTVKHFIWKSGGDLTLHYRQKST
Deubiquitinase activity was measured using ubiquitin-rhodamine 110 as a substrate. Cleavage of the amide bond between rhodamine and the c-terminal glycine of ubiquitin yields an increase in fluorescence signal. The assay was conducted in 20 ul total volume of assay buffer (50 mM Tris-HCl, pH 7.8, 0.5 mM EDTA, 0.01% Bovine Serum Albumin, 1 mM DTT, 0.01% Tween-20), and 0.05 nM USP1/UAF1 enzyme.
Compounds, dissolved in DMSO were tested in dose response format, beginning at 10 uM.
Compounds depicted below were added to enzyme/assay buffer mix and incubated 10 min.
Data for all assay formats was calculated as percent inhibition compared with control wells. […] IC50 values were calculated using the standard four parameter curve fitting algorithm in either Prism GraphPad (La Jolla, Calif.) software, or Collaborative Drug Discovery (Burlingame, Calif.) CDD Vault.
`Cc1cccc(S(C)(=O)=O)c1-c1ncc2cnn(Cc3ccc(-c4nc(C(F)(F)F)cn4C)cc3)c2n1` had an IC50 of 100 to 200 nM.

For the compound `Cn1cc(C(F)(F)F)nc1-c1ccc(Cn2ncc3cnc(-c4ccccc4S(C)(=O)=O)nc32)cc1` [drawing 707], the IC50 lay in the range of 100 to 200 nM.

`CCS(=O)(=O)c1ccccc1-c1ncc2cnn(Cc3ccc(-c4nc(C(F)(F)F)cn4C)cc3)c2n1` [drawing 709] gave an IC50 of 100 to 200 nM.

`Cc1cc(C(F)F)nn1-c1ccc(Cn2ncc3cnc(-c4cccnc4C(C)C)nc32)cc1` [drawing 710] returned an IC50 of 10 to 100 nM.

`COc1nccc(C)c1-c1ncc2cnn(Cc3ccc(-c4nc(C(F)(F)F)cn4C)cc3)c2n1` [drawing 711] yielded an IC50 of 10 to 100 nM.

For the compound `COc1ncnc(C)c1-c1ncc2cnn(Cc3ccc(-c4nc(C(F)(F)F)cn4C)cc3)c2n1` [drawing 712], the IC50 lay within 10 to 100 nM.

For the compound `Cc1cc(C(F)(F)F)nn1-c1ccc(Cn2ncc3cnc(-c4cccnc4C(C)C)nc32)cc1` [drawing 713], the IC50 is 10 to 100 nM.

Turning to `COc1cccc(OC)c1-c1ncc2cnn(Cc3ccc(-c4nc(C(F)(F)F)cn4C)cc3)c2n1` [drawing 714], the IC50 was 10 to 100 nM.

In turn, `COc1ccccc1-c1ncc2cnn(Cc3ccc(-c4nc(C(F)(F)F)cn4C)cc3)c2n1` [drawing 715] displayed an IC50 of 10 to 100 nM.

Regarding `Cc1cc(C(F)(F)F)nn1-c1ccc(Cn2ncc3cnc(-c4ccccc4C(C)C)nc32)cc1` [drawing 716], the IC50 was 10 to 100 nM.

As for `COc1cccc(C)c1-c1ncc2cnn(Cc3ccc(-c4nc(C(F)(F)F)cn4C)cc3)c2n1` [drawing 717], the IC50 was in the range of 10 to 100 nM.

In the case of `CC(C)c1ccccc1-c1ncc2ncn(Cc3ccc(-c4nc(C(F)(F)F)cn4C)cc3)c2n1` [drawing 719], the IC50 is 10 to 100 nM.

Compound `COc1ncnc(C2CC2)c1-c1ncc2cnn(Cc3ccc(-c4nc(C(F)(F)F)cn4C)cc3)c2n1` [drawing 720] gave a half-maximal inhibitory concentration (IC50) of 10 to 100 nM.

In turn, `CC(C)c1ncccc1-c1ncc2cnn(Cc3ccc(-c4nc(C(F)(F)F)cn4C)cc3)c2n1` [drawing 721] gave a concentration for half-maximal inhibition (IC50) of 10 to 100 nM.

In turn, `CSc1cccc(C)c1-c1ncc2cnn(Cc3ccc(-c4nc(C(F)(F)F)cn4C)cc3)c2n1` [drawing 722] displayed an IC50 of 10 to 100 nM.

Regarding `COc1ncnc(C2CC2)c1-c1ncc2cnn(Cc3ccc(-n4nc(C(F)(F)F)cc4C)cc3)c2n1` [drawing 723], the IC50 was less than 10 nM.

`COc1cccc(C2CC2)c1-c1ncc2cnn(Cc3ccc(-c4nc(C(F)(F)F)cn4C)cc3)c2n1` [drawing 724] gave an IC50 of less than 10 nM.

`CC(C)c1ccccc1-c1ncc2cnn(Cc3ccc(-c4nc(C(F)(F)F)cn4C4CN(C)C4)cc3)c2n1` [drawing 725] yielded an IC50 of less than 10 nM.

Compound `CC(C)c1ccccc1-c1ncc2cnn(C(C)c3ccc(-c4nc(C(F)(F)F)cn4C)cc3)c2n1` (stereo not drawn) [drawing 726] had an IC50 of less than 10 nM.

For the compound `CC(C)c1c(F)cccc1-c1ncc2cnn(Cc3ccc(-c4nc(C(F)(F)F)cn4C)cc3)c2n1` [drawing 728], the IC50 was less than 10 nM.

Compound `Cc1nn(Cc2ccc(-c3nc(C(F)(F)F)cn3C)cc2)c2nc(-c3ccccc3C(C)C)ncc12` [drawing 729] registered an IC50 of less than 10 nM.

`CC(C)c1ccccc1-c1ncc2cnn(Cc3ccc(-c4nc(C(F)(F)F)cn4C)cc3)c2n1` [drawing 730] showed an IC50 of less than 10 nM.

Staying with this assay, now noted: Table 3; 0.05 nM USP1/UAF1, 150 nM ubiquitin-rhodamine.
`[2H]C([2H])([2H])n1cc(C(F)(F)F)nc1-c1ccc(Cn2ncc3cnc(-c4c(OC)ncnc4C4CC4)nc32)cc1` registered an IC50 of 10 to 100 nM.

On to `Cn1cc(C(F)(F)F)nc1-c1ccc(Cn2ncc3cnc(-c4c(C#N)ncnc4C4CC4)nc32)cc1`, for which the half-inhibitory concentration (IC50) is 10 to 100 nM.

`COc1ncnc(C2CC2)c1-c1ncc2cnn(Cc3ccc(-n4nc(C#N)cc4C)cc3)c2n1` returned a half-inhibitory concentration (IC50) of 10 to 100 nM.

For the compound `CNc1ncnc(C2CC2)c1-c1ncc2cnn(Cc3ccc(-c4nc(C(F)(F)F)cn4C)cc3)c2n1`, the IC50 was 10 to 100 nM.

In the case of `COc1ncnc(C)c1-c1ncc2cnn(Cc3ccc(-n4nc(C(F)(F)F)cc4OC)cc3)c2n1`, the IC50 is 100 to 200 nM.

In turn, `Cn1cc(C(F)(F)F)nc1-c1ccc(Cn2ncc3cnc(-c4c(OC5CCOC5)ncnc4C4CC4)nc32)cc1` (stereo not drawn) showed an IC50 of 100 to 200 nM.

For `CCn1cc(C(F)(F)F)nc1-c1ccc(Cn2ncc3cnc(-c4c(OCc5ccccc5)ncnc4C4CC4)nc32)cc1`, the IC50 lay within 100 to 200 nM.

Compound `COc1ncnc(C2CC2)c1-c1ncc2cnn(Cc3ccc(-c4nc(C(F)F)nn4C)cc3)c2n1` yielded an IC50 greater than 200 nM.

On to `Cn1cc(C(F)(F)F)nc1-c1ccc(Cn2ncc3cnc(-c4c(OCc5ccccc5)ncnc4C4CC4)nc32)cc1`, for which the IC50 was greater than 200 nM.

Take `COc1ncnc(C2CC2)c1-c1ncc2cnn(Cc3ccc(-c4nc(OC)n(C)n4)cc3)c2n1`: the IC50 is greater than 200 nM.

`COc1ncnc(C2CC2)c1-c1ncc2cnn(Cc3ccc(-c4nc(C(F)(F)F)cn4CC(=O)N(C)C)cc3)c2n1` came in with an IC50 greater than 200 nM.

Turning to `CN(C)c1ncnc(C2CC2)c1-c1ncc2cnn(Cc3ccc(-c4nc(C(F)(F)F)cn4C)cc3)c2n1`, the IC50 was greater than 200 nM.

On to `COc1ncnc(C2CC2)c1-c1ncc2cnn(Cc3ccc(-c4nc(C(F)F)n(C)n4)cc3)c2n1`, for which the IC50 is greater than 200 nM.

The compound `Cn1cc(C(F)(F)F)nc1-c1ccc(Cn2ncc3cnc(-c4c(C5CC5)ncnc4N4CCCC4)nc32)cc1` displayed an IC50 greater than 200 nM.

In turn, `Cc1ncnc(N(C)C)c1-c1ncc2cnn(Cc3ccc(-n4nc(C(F)(F)F)cc4C)cc3)c2n1` gave an IC50 greater than 200 nM.

`Cn1cc(C(F)(F)F)nc1-c1ccc(Cn2ncc3cnc(-c4c(C5CC5)ncnc4N4CCC4)nc32)cc1` had an IC50 greater than 200 nM.

Regarding `CCn1cc(C(F)(F)F)nc1-c1ccc([C@@H](C)n2ncc3cnc(-c4c(OC)ncnc4C4CCC4)nc32)cc1` (single isomer, unassigned) [drawing 742], the 50% inhibitory concentration (IC50) was in the range of 10 to 100 nM.

For the compound `COc1ncnc(C2CC2)c1-c1ncc2cnn([C@@H](C)c3ccc(-c4nc(C(F)(F)F)cn4C)cc3)c2n1` (single isomer, unassigned) [drawing 743], the half-inhibitory concentration (IC50) fell in the range of 10 to 100 nM.

As to `CCn1cc(C(F)(F)F)nc1-c1ccc([C@@H](C)n2ncc3cnc(-c4c(OC)ncnc4C4CC4)nc32)cc1` (single isomer, unassigned) [drawing 747], the IC50 was 10 to 100 nM.

`CCn1cc(C(F)(F)F)nc1-c1ccc([C@H](C)n2ncc3cnc(-c4c(OC)ncnc4C4CCC4)nc32)cc1` (single isomer, unassigned) [drawing 748] showed an IC50 of 10 to 100 nM.

Take `CCn1cc(C(F)(F)F)nc1-c1ccc([C@H](C)n2ncc3cnc(-c4c(OC)ncnc4C4CC4)nc32)cc1` (single isomer, unassigned) [drawing 751]: the IC50 fell in the range of 10 to 100 nM.

`COc1ncnc(C2CC2)c1-c1ncc2cnn([C@H](C)c3ccc(-c4nc(C(F)(F)F)cn4C)cc3)c2n1` (single isomer, unassigned) [drawing 759] showed an IC50 of 10 to 100 nM.

In turn, `CCn1cc(C(F)(F)F)nc1-c1ccc(Cn2ncc3cnc(-c4c(OC(F)F)ncnc4C4CC4)nc32)cc1` [drawing 731] yielded an IC50 of less than 10 nM.

The compound `COc1ncnc(C2CC2)c1-c1ncc2cnn(Cc3ccc(-c4nc(C(F)(F)F)cn4C4CCC4)cc3)c2n1` [drawing 732] showed an IC50 of less than 10 nM.

Staying with this assay, now noted: Table 4; 0.05 nM USP1/UAF1, 150 nM ubiquitin-rhodamine.
In the case of `COc1ncnc(C2CC2)c1-c1ncc2ccn(Cc3ccc(-c4nc(C(F)(F)F)cn4C(C)C)cc3)c2n1`, the IC50 is less than 10 nM.

`COc1ncnc(C)c1-c1ncc2ncn(Cc3ccc(-n4nc(C(F)(F)F)cc4C)cc3)c2n1` registered an IC50 greater than 200 nM.

For orientation: IC50 means the concentration at which inhibition is half-maximal. Lower therefore signals higher potency.
